Values joined by “and” are separate entries in the source; they are usually repeats but may differ in a detail not shown here. Equal entries are not always repeated. One block for each compound: values may come before it.
Experiments:
Capan-1 cells [1] = experiment: Cell proliferation (CTG); assay type: cell-based; conditions: Homo sapiens; Capan-1, CTG; (95% CI)
Experimental: (§1) Alternatively, cells were seeded in round-bottom ultra-low attachment 96-well plates, centrifuged at 1,000 rpm for 10 min to pellet the cells, and incubated overnight or up to 72 h to allow for 3D spheroid formation. […] Cell viability was determined by CellTiter-Glo 2.0 reagent (2D CTG) (Promega, G9243) or 3D CellTiter-Glo reagent (3D CTG) (Promega, G9683) according to the manufacturer’s protocols. Luminescence was detected using a SpectraMax M5 Plate Reader (Molecular Devices) of Perkin Elmer Enspire. Luminescence signal was normalized to vehicle-treated wells (normalized signal (%) = (luminescence (treated)/mean luminescence (vehicle)) × 100%). […] Data were plotted as log [inhibitor (M)], and a four-parameter sigmoidal concentration response model was fitted to the data to calculate EC50. […] Pa16C MEK1 mutant cells were evaluated by live-cell counting using Calcein AM and a SpectraMax i3X multi-mode detection platform (Molecular Devices). Growth percentages were calculated by normalizing the treated cell counts to their respective untreated cell counts.

CYPA = molecular target: T1, CYPA (Homo sapiens, UniProt P62937); experiment: CYPA binding affinity (Kd1), SPR; conditions: steady state, (95% CI)
T1 construct: His6-TEV-AviTag-CYPA (full-length); His6-TEV (N); made in house; host or cells: BL21(DE3) Escherichia coli
Experimental: The binding affinity of compounds for CYPA (Kd1) was assessed by SPR on a Biacore 8K instrument as previously described.

KRAS^G12V [2] = molecular target: T2, KRAS^G12V (Homo sapiens, UniProt P01116+P62937, G12V); experiment: RAS binding affinity of compound-bound CYPA (Kd2), SPR; parameters: His6-TEV (N); made in house; host or cells: BL21(DE3) Escherichia coli; conditions: steady state, (95% CI)
[3] = Oral bioavailability in mice (LC-MS/MS of blood); assay type: in vivo; conditions: mouse, whole blood, read-out: Oral Bioavailability m%F
A375 cells [4] = experiment: Cell proliferation (CTG); assay type: cell-based, human; conditions: Homo sapiens, A-375; A375, CTG; (95% CI)
Experimental: as §1

A375 cells [5] = experiment: Cellular ERK phosphorylation (pERK); assay type: cell-based, human; conditions: Homo sapiens, A-375; A375 (BRAF^V600E)
KRAS^G12V [6] = molecular target: T2, KRAS^G12V; experiment: Biochemical RAS–RAF (BRAF RBD) disruption, TR-FRET; parameters: His6-TEV (N); made in house; host or cells: BL21(DE3) Escherichia coli
Source text: Time-resolved fluorescence resonance energy transfer (TR-FRET) was used as previously described to assess disruption of the interactions between wild-type RAS or the mutant oncogenic RAS proteins and the RAS-binding domain of BRAF, and to assess the induction of interactions between the RAS proteins and CYPA[12].

Capan-1 cells [7] = experiment: Cellular ERK phosphorylation (pERK); assay type: cell-based; conditions: Homo sapiens; Capan-1 (KRAS^G12V PDAC); (95% CI)
[8] = system: KRAS^G12D PDAC cell lines; experiment: Western blot time course of RAS signalling in KRAS^G12D PDAC cell lines; assay type: cell-based, human; conditions: KRAS^G12D PDAC cells in culture, 2 h to 48 h
Experimental: Total ERK and vinculin were used as loading controls. […] Source Data
Cells were lysed with MSD Tris Lysis Buffer (MSD, R60TX-2) or a buffer of 1% Triton X-100, 20 mM Tris-HCl, 150 mM NaCl, and 1 mM EDTA, both supplemented with protease and phosphatase inhibitors. Lysates were cleared by centrifugation and quantified by BCA assay (Pierce, 23225). […] Image Studio Lite (Version 5.2.5) and Image Lab (Version 6.1.0 build 7) software were used for data analysis.

[9] = system: Pa16C cells expressing MEK1 mutants; experiment: Proliferation (Calcein AM) of Pa16C cells expressing MEK1 mutants; assay type: cell-based, human

Kd (CYPA): 0.862 µM
Kd (KRAS^G12V [2]): 6.55 µM
bioavailability [3]: 5%
EC50 (A375 cells [4]): 6.41 µM
EC50 (A375 cells [5]): > 10 µM
EC50 (KRAS^G12V [6]): 4.4 µM
EC50 (Capan-1 cells [7]): 0.632 µM
Compound: CCn1c(-c2cccnc2[C@H](C)OC)c2c3cc(ccc31)-c1cccc(c1)C[C@H](NC(=O)[C@H](C(C)C)N(C)C(=O)[C@H]1CCN(C(C)=O)C1)C(=O)N1CCC[C@H](N1)C(=O)OCC(C)(C)C2 [Compound 1]
EC50 (Capan-1 cells [1]): 0.965 µM

Compound: C#Cc1c(F)ccc2cc(O)cc(-c3ncc4c(N5CC6CCC(C5)N6)nc(OC[C@@]56CCCN5C[C@H](F)C6)nc4c3F)c12 [MRTX1133, reference compound]
pERK suppression over time [8]: rebounded by 48 h
Proliferation of Pa16C cells expressing MEK1 mutant constructs ([9]; MEK1E102-I103del, inhibitor 0.046 nM): 125.8 and 122.1 and 120.54 and 95.05
Proliferation of Pa16C cells expressing MEK1 mutant constructs ([9]; MEK1E102-I103del, inhibitor 0.412 nM): 113.2 and 113.4 and 113.54 and 82.15
Proliferation of Pa16C cells expressing MEK1 mutant constructs ([9]; MEK1E102-I103del, inhibitor 1.235 nM): 110 and 114.8 and 110.17 and 83.99
Proliferation of Pa16C cells expressing MEK1 mutant constructs ([9]; MEK1E102-I103del, inhibitor 3.704 nM): 89.5 and 104.7 and 87.18 and 77.13
Proliferation of Pa16C cells expressing MEK1 mutant constructs ([9]; MEK1K57N, inhibitor 0.046 nM): 113.3 and 92 and 123.41 and 119.36
Proliferation of Pa16C cells expressing MEK1 mutant constructs ([9]; MEK1K57N, inhibitor 0.412 nM): 108.9 and 110.1 and 130.35 and 129.87
Proliferation of Pa16C cells expressing MEK1 mutant constructs ([9]; MEK1K57N, inhibitor 1.235 nM): 119.4 and 130.2 and 127.87 and 133.27
Proliferation of Pa16C cells expressing MEK1 mutant constructs ([9]; MEK1K57N, inhibitor 3.704 nM): 112.2 and 126.4 and 116.3 and 122.06
Proliferation of Pa16C cells expressing MEK1 mutant constructs ([9]; MEK1Q56P, inhibitor 0.046 nM): 116.6 and 110 and 105 and 106.72
Proliferation of Pa16C cells expressing MEK1 mutant constructs ([9]; MEK1Q56P, inhibitor 0.412 nM): 113.89 and 123.5 and 112.2 and 128.92
Proliferation of Pa16C cells expressing MEK1 mutant constructs ([9]; MEK1Q56P, inhibitor 1.235 nM): 123.05 and 112.4 and 128.9 and 131.08
Proliferation of Pa16C cells expressing MEK1 mutant constructs ([9]; MEK1Q56P, inhibitor 3.704 nM): 108.45
Proliferation of Pa16C cells expressing MEK1 mutant constructs ([9]; MEK1S218D/S222D, inhibitor 0.046 nM): 106.52 and 116.35 and 117.97 and 101.1
Proliferation of Pa16C cells expressing MEK1 mutant constructs ([9]; MEK1S218D/S222D, inhibitor 0.412 nM): 107.39 and 112.33 and 125.31 and 99.77
Proliferation of Pa16C cells expressing MEK1 mutant constructs ([9]; MEK1S218D/S222D, inhibitor 1.235 nM): 101.82 and 118.84 and 117.94 and 98.18
Proliferation of Pa16C cells expressing MEK1 mutant constructs ([9]; MEK1S218D/S222D, inhibitor 3.704 nM): 93.55 and 118.16 and 86.21 and 93.79
Proliferation of Pa16C cells expressing MEK1 mutant constructs ([9]; MEK1WT, inhibitor 0.046 nM): 112.3 and 102.3 and 116.1 and 105.31 and 102.33
Proliferation of Pa16C cells expressing MEK1 mutant constructs ([9]; MEK1WT, inhibitor 0.412 nM): 119.4 and 93.5 and 109.72 and 103.89 and 97.19
Proliferation of Pa16C cells expressing MEK1 mutant constructs ([9]; MEK1WT, inhibitor 1.235 nM): 110 and 85.2 and 91.69 and 105.96 and 84.4
Proliferation of Pa16C cells expressing MEK1 mutant constructs ([9]; MEK1WT, inhibitor 3.704 nM): 88.3 and 70.7 and 61.19

Reference: paper PMC11111408, “Concurrent inhibition of oncogenic and wild-type RAS-GTP for cancer therapy” (Nature, 2024)
